# How the values were obtained:
# [1] = target: T1, Alpha-2B adrenergic receptor (Homo sapiens) (UniProt P18089); conditions: Compound concentration 10.0 uM
# T1 sequence (whole entry): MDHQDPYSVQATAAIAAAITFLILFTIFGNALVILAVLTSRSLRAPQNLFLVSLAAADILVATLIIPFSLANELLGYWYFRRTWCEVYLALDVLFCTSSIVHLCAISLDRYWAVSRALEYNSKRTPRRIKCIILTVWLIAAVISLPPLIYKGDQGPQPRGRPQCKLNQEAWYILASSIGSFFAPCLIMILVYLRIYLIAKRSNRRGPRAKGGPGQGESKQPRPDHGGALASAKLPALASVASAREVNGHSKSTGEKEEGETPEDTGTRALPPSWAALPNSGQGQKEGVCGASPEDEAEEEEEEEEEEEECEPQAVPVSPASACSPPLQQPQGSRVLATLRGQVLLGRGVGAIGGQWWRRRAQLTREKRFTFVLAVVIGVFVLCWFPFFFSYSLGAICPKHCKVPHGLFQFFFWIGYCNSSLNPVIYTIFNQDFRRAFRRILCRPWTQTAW
# [2] = target: Mitogen-activated protein kinase kinase kinase 15 (Homo sapiens) (UniProt Q6ZN16); conditions: Compound concentration 1000.0 nM
# [3] = target: Alpha-1A adrenergic receptor (Homo sapiens) (UniProt P35348); conditions: Compound concentration 10.0 uM
# [4] = target: Vascular endothelial growth factor receptor 3 (Homo sapiens) (UniProt P35916); conditions: Compound concentration 1000.0 nM
# [5] = target: T2, 5-hydroxytryptamine receptor 2C (Homo sapiens) (UniProt P28335); conditions: Compound concentration 10.0 uM
# T2 sequence (whole entry): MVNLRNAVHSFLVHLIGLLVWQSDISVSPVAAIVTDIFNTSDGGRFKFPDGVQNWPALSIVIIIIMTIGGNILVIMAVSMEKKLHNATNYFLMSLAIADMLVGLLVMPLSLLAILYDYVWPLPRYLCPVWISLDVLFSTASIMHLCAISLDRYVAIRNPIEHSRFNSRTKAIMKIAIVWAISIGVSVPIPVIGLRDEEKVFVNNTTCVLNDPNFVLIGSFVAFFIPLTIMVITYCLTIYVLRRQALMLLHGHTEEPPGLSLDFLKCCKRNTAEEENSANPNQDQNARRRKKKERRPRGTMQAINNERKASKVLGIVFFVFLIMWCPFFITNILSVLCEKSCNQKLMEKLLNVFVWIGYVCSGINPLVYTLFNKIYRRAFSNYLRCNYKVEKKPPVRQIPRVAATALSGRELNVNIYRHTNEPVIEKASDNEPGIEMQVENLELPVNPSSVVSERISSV
# [6] = target: 5-hydroxytryptamine receptor 6 (Homo sapiens) (UniProt P50406); conditions: Compound concentration 10.0 uM
# [7] = target: Beta-3 adrenergic receptor (Homo sapiens) (UniProt P13945); experiment: beta 3 (h) CEREP ligand profiling; conditions: Compound concentration 10.0 uM
# [8] = target: T3, 5-hydroxytryptamine receptor 3A (Homo sapiens) (UniProt P46098); conditions: Compound concentration 10.0 uM
# T3 sequence (whole entry): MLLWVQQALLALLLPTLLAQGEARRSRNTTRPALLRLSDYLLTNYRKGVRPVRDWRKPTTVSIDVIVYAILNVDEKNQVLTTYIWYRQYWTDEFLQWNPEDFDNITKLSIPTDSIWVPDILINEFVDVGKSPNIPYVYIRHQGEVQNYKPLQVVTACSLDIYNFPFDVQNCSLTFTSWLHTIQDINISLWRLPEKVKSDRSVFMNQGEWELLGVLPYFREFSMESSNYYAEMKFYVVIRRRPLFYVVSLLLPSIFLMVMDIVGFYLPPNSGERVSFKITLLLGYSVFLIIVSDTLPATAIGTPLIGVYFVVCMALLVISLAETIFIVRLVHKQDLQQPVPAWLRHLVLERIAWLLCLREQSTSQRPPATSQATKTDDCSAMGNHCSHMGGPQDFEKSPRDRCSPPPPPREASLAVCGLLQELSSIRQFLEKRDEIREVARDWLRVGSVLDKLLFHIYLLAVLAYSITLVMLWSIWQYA
# [9] = target: Delta-type opioid receptor (Homo sapiens) (UniProt P41143); conditions: Compound concentration 10.0 uM
# [10] = target: T4, Muscarinic acetylcholine receptor M5 (Homo sapiens) (UniProt P08912); conditions: Compound concentration 10.0 uM
# T4 sequence (whole entry): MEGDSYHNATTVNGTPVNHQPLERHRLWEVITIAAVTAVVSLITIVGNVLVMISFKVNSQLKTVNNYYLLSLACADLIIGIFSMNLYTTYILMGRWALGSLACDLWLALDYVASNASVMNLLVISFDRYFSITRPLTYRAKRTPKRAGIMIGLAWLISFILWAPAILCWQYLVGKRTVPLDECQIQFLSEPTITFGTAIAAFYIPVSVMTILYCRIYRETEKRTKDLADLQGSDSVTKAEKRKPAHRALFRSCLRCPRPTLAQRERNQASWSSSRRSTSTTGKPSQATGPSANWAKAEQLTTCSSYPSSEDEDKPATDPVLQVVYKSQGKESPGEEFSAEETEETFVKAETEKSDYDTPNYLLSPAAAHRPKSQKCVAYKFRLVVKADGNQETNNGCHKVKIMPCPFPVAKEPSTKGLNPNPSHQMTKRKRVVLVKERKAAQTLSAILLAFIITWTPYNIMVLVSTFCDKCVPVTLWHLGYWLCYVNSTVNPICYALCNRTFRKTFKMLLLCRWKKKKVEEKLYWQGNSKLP
# [11] = target: Tyrosine-protein kinase Lyn (Homo sapiens) (UniProt P07948); experiment: Lyn kinase (h) CEREP ligand profiling; conditions: Compound concentration 10.0 uM
# [12] = target: T5, D(4) dopamine receptor (Homo sapiens) (UniProt P21917); conditions: Compound concentration 10.0 uM
# T5 sequence (whole entry): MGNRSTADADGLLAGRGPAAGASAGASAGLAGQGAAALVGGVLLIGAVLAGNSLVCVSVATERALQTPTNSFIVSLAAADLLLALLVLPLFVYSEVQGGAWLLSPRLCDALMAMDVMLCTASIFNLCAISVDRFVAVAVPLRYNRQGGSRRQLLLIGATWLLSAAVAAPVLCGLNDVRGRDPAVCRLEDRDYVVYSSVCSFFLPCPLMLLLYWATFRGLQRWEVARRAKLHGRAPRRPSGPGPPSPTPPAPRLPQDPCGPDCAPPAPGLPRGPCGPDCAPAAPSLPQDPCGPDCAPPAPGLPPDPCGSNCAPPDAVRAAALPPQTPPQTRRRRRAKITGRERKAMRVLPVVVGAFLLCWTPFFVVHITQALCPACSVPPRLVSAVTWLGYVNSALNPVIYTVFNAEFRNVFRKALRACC
# [13] = target: Alpha-1D adrenergic receptor (Homo sapiens) (UniProt P25100); conditions: Compound concentration 10.0 uM
# [14] = target: STE20-like serine/threonine-protein kinase (Homo sapiens) (UniProt Q9H2G2); conditions: Compound concentration 1000.0 nM
# Sequence of Alpha-1D adrenergic receptor (Homo sapiens) (P25100 whole entry): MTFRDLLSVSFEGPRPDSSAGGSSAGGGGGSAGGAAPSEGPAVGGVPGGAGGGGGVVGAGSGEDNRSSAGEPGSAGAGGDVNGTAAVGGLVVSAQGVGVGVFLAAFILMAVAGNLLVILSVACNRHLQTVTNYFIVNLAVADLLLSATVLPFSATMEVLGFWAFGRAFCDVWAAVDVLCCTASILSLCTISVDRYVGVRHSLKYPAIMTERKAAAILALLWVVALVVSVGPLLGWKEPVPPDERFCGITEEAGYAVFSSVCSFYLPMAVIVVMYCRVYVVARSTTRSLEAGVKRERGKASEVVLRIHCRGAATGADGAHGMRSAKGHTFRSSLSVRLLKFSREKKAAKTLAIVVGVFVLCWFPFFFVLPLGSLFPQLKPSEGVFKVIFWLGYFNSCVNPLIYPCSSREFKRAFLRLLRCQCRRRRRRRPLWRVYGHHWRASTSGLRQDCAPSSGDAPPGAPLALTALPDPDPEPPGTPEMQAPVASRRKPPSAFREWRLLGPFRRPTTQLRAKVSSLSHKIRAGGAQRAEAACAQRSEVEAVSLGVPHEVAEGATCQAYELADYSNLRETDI
# Sequence of 5-hydroxytryptamine receptor 6 (Homo sapiens) (P50406 whole entry): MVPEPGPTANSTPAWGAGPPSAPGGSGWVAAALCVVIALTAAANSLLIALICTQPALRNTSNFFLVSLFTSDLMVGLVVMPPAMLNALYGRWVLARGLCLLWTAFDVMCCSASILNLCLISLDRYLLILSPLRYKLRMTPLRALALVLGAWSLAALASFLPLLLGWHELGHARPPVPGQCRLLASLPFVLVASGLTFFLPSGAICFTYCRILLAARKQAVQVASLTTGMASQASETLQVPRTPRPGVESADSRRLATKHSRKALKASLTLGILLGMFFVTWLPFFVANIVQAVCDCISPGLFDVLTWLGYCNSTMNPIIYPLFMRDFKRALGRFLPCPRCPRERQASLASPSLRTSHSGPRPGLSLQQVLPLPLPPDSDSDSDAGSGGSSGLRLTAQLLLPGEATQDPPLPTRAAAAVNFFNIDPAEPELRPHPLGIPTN
# Sequence of Alpha-1A adrenergic receptor (Homo sapiens) (P35348 whole entry): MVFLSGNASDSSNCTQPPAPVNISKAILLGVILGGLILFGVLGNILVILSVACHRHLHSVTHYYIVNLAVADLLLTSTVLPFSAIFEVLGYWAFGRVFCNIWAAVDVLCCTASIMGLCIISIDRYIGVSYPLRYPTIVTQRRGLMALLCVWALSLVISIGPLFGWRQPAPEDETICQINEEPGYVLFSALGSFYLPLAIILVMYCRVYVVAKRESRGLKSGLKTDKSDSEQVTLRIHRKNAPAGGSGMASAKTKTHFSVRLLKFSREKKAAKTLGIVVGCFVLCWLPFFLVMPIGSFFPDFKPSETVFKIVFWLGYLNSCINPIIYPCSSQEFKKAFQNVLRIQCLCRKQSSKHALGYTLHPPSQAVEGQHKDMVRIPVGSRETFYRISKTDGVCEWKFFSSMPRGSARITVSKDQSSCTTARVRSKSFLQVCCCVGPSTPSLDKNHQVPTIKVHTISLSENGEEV
# Sequence of Delta-type opioid receptor (Homo sapiens) (P41143 whole entry): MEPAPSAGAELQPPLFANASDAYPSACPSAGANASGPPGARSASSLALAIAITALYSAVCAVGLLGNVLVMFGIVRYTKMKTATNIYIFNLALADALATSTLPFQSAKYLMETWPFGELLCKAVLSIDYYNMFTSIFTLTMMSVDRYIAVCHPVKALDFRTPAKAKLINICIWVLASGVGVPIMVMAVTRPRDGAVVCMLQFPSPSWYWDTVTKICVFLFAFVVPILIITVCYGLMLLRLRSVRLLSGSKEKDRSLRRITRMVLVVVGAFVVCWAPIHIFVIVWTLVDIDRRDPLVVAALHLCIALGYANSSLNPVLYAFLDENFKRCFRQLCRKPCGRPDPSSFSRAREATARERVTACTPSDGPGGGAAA
# Sequence of Mitogen-activated protein kinase kinase kinase 15 (Homo sapiens) (Q6ZN16 whole entry): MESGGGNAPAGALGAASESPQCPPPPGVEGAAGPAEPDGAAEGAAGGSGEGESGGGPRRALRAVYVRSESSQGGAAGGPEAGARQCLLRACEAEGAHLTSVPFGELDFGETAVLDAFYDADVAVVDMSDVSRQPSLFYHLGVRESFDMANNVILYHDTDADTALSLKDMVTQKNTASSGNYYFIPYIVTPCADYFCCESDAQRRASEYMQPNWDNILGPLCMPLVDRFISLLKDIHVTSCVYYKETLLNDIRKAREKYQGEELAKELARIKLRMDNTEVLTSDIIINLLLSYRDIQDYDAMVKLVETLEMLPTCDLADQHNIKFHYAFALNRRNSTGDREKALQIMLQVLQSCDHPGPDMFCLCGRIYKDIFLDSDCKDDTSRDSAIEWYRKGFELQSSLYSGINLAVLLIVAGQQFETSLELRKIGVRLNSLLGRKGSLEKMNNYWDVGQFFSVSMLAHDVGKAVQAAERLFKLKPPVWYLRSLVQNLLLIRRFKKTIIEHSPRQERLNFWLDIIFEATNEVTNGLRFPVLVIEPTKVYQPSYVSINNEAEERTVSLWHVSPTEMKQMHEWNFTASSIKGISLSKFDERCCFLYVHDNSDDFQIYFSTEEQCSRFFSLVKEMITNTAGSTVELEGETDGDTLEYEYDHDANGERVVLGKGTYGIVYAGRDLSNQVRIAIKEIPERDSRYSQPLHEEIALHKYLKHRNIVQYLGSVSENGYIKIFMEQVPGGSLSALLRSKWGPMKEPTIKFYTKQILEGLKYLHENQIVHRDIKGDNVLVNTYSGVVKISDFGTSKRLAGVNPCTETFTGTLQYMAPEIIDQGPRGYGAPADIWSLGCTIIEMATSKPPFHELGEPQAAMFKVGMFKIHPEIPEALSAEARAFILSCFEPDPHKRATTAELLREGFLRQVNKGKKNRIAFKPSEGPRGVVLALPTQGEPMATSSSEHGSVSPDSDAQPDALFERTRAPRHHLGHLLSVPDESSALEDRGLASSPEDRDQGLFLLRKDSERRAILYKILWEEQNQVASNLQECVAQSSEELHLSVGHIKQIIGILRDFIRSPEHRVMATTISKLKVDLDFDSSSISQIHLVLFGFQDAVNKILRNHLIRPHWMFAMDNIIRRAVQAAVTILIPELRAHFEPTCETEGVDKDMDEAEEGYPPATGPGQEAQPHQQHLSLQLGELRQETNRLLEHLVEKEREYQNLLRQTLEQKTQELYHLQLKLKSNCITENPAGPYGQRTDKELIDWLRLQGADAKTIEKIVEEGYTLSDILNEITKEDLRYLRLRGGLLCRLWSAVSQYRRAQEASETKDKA
# Sequence of Vascular endothelial growth factor receptor 3 (Homo sapiens) (P35916 whole entry): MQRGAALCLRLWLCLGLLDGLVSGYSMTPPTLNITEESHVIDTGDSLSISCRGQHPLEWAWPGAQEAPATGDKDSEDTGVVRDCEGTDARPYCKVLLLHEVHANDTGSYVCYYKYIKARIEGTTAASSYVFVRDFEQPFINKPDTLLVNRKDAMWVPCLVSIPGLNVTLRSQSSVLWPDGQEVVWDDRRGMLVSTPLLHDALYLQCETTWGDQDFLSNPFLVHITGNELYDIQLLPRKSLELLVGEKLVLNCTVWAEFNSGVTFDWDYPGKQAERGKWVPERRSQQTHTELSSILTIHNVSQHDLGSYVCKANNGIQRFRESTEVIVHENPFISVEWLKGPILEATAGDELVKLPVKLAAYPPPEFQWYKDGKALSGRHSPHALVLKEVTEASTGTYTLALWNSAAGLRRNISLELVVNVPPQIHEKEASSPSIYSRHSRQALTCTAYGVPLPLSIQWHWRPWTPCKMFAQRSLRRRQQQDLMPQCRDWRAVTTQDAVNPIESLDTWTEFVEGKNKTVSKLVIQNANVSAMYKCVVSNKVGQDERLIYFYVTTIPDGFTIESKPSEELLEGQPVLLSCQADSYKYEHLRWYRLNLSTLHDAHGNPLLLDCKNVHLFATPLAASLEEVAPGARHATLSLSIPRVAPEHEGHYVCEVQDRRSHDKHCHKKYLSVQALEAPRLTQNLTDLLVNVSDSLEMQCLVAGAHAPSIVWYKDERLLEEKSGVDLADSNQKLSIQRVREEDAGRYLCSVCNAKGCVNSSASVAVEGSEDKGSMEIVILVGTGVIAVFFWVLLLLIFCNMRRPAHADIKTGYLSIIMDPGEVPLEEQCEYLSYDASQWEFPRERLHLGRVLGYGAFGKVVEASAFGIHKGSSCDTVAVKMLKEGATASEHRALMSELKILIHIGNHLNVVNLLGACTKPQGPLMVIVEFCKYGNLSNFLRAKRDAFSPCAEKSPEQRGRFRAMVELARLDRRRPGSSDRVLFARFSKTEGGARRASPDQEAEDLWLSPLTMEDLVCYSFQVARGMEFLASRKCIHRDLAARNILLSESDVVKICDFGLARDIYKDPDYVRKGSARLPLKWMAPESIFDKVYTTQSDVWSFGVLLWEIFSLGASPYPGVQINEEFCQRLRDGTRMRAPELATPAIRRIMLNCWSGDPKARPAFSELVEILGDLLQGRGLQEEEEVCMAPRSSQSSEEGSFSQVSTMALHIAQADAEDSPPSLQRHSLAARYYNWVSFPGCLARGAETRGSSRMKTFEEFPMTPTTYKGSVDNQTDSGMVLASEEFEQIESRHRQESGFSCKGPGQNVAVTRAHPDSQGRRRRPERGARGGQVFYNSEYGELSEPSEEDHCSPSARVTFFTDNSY
# Sequence of Tyrosine-protein kinase Lyn (Homo sapiens) (P07948 2-512 limits assumed): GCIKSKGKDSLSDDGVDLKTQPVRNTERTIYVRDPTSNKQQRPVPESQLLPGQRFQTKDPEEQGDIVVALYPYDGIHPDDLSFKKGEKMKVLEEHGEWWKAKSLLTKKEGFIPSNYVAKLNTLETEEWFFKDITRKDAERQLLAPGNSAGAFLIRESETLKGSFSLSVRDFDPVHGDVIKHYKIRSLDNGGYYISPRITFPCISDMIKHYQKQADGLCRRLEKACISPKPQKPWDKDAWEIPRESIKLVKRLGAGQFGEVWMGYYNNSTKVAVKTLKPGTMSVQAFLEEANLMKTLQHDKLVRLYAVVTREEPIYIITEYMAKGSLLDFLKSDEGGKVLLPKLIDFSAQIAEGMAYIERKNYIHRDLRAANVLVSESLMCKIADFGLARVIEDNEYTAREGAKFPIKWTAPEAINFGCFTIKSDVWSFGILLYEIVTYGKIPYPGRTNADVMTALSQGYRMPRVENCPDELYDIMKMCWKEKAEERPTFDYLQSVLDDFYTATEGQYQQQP
SMILES,inhibition [1] [%],residual activity [2] [%],inhibition [3] [%],residual activity [4] [%],inhibition [5] [%],inhibition [6] [%],inhibition [7] [%],inhibition [8] [%],inhibition [9] [%],inhibition [10] [%],inhibition [11] [%],inhibition [12] [%],inhibition [13] [%],residual activity [14] [%]
COc1ccc2cc(OCC3(C(=O)O)CN(C(=O)c4ccc(F)cc4)C3)ccc2c1 [PF-04418948],9.24,94,2.52,75,12.3,-6.47,3,0.08,5.07,-7.44,2,8.76,-3.76,85
O=C(c1ccc(F)cc1)N1CC(COc2ccc(Br)cc2)(C(=O)O)C1 [PF-04475866],12.1,,-4.09,,30.2,-2.64,,16.6,-5.22,-0.33,,-7.87,5,

# — ChEMBL document CHEMBL4507298 (2021)
